The nature of series [1]: Solubility in water of chitosan oligosaccharides (Table 1). The format is physicochemical.
Series [2] in a line: CH3OH solubility of chitosan oligosaccharides (Table 1). The class given is physicochemical. The conditions noted are these: methanol, organic solvent or mixture.
[3] abbreviates: in water, read-out: Solubility (% in water).
Setting [4] is: CH3OH, 20° C., read-out: CH3OH Solubility.

Experimental findings from US5730876A, “Separation and purification of low molecular weight chitosan using multi-step membrane separation process” (You; Hyang-Ja, priority 1997, dated 1998) are described below.

Where a name gives a salt, the structure may show the parent alone.

A word on the solubility: it is the concentration that dissolves in the medium under given conditions. As for `N[C@H]1[C@H](O[C@H]2[C@H](O)[C@@H](N)[C@H](O[C@H]3[C@H](O)[C@@H](N)C(O)O[C@@H]3CO)O[C@@H]2CO)O[C@H](CO)[C@@H](O)[C@@H]1O` (stereo partly drawn) [Chitotriose HCl], the solubility in series [1] (setting [3]) stood at 1770 mg/mL; in series [2] (setting [4]), 370 mg/mL.

On to `N[C@H]1[C@H](O[C@H]2[C@H](O)[C@@H](N)[C@H](O[C@H]3[C@H](O)[C@@H](N)[C@H](O[C@H]4[C@H](O)[C@@H](N)C(O)O[C@@H]4CO)O[C@@H]3CO)O[C@@H]2CO)O[C@H](CO)[C@@H](O)[C@@H]1O` (stereo partly drawn) [Chitotetrose HCl], for which the values for the solubility in series [1] (setting [3]) and in series [2] (setting [4]) were 1580 mg/mL and 450 mg/mL, respectively.

Regarding `Cl.N[C@H]1C(O)O[C@H](CO)[C@@H](O)[C@@H]1O` (stereo partly drawn) [D-Glucosamine HCl], the solubility in series [1] (water) was 371 mg/mL; in series [2] it was 4 mg/mL.

Regarding `N[C@H]1[C@H](O[C@H]2[C@H](O)[C@@H](N)[C@H](O[C@H]3[C@H](O)[C@@H](N)[C@H](O[C@H]4[C@H](O)[C@@H](N)[C@H](O[C@H]5[C@H](O)[C@@H](N)C(O)O[C@@H]5CO)O[C@@H]4CO)O[C@@H]3CO)O[C@@H]2CO)O[C@H](CO)[C@@H](O)[C@@H]1O` (stereo partly drawn) [Chitopentose HCl], the values for the solubility in series [1] (setting [3]) and in series [2] (setting [4]) were 860 mg/mL and 46 mg/mL, respectively.

On to `N[C@H]1[C@H](O[C@H]2[C@H](O)[C@@H](N)[C@H](O[C@H]3[C@H](O)[C@@H](N)[C@H](O[C@H]4[C@H](O)[C@@H](N)[C@H](O[C@H]5[C@H](O)[C@@H](N)[C@H](O[C@H]6[C@H](O)[C@@H](N)C(O)O[C@@H]6CO)O[C@@H]5CO)O[C@@H]4CO)O[C@@H]3CO)O[C@@H]2CO)O[C@H](CO)[C@@H](O)[C@@H]1O` (stereo partly drawn) [Chitohexose HCl], for which the solubility came out at 680 mg/mL in series [1] (setting [3]) and 17 mg/mL in series [2] (setting [4]).

`N[C@H]1[C@H](O[C@H]2[C@H](O)[C@@H](N)C(O)O[C@@H]2CO)O[C@H](CO)[C@@H](O)[C@@H]1O` (stereo partly drawn) [Chitobiose HCl]: the solubility came to 1900 mg/mL in series [1] (setting [3]) and 54 mg/mL in series [2] (setting [4]).
